Measurements from US8901087B2, “Selective glycosidase inhibitors and uses thereof” (priority 2010, dated 2014).

What follows are compounds tested against human O-GlcNAcase (Homo sapiens (Human), UniProt O60502) (assay: Fluorescence-based assay for determination of KI values for inhibition of O-GlcNAcase activity). Details: not given.
human O-GlcNAcase, sequence (O60502 whole entry): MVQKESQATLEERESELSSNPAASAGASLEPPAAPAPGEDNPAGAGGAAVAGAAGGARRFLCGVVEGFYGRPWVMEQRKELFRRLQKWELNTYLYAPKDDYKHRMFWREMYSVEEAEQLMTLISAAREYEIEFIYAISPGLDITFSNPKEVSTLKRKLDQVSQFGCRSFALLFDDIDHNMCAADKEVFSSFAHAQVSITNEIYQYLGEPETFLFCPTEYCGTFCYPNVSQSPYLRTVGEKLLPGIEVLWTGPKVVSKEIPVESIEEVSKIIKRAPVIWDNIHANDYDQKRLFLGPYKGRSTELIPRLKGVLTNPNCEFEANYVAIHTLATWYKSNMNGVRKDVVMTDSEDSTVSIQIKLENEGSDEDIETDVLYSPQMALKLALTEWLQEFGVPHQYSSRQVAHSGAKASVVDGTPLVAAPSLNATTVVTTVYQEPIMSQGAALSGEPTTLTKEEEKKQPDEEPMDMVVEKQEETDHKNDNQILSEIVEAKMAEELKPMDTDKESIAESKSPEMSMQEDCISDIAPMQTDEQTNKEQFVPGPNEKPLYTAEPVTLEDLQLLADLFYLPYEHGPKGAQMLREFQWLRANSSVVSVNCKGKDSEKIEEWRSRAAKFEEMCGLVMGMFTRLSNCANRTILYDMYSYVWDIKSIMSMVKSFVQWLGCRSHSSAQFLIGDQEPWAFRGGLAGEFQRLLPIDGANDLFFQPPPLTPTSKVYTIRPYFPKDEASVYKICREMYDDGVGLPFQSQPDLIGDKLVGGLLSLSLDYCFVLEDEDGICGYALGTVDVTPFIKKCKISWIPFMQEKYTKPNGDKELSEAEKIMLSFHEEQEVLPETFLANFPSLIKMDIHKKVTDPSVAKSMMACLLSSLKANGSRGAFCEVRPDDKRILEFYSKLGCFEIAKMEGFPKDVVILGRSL
Format: biochemical
Protocol: Assay for Determination of KI Values for Inhibition of O-GlcNAcase Activity
Experimental Procedure for Kinetic Analyses
Enzymatic reactions are carried out in a reaction containing 50 mM NaH2PO4, 100 mM NaCl and 0.1% BSA (pH 7.0) using 2 mM 4-Methylumbelliferyl N-acetyl-β-D-glucosaminide dihydrate (Sigma M2133) dissolved in ddH2O, as a substrate. The amount of purified human O-GlcNAcase enzyme used in the reaction is 0.7 nM. Test compound of varying concentrations is added to the enzyme prior to initiation of the reaction. The reaction is performed at room temperature in a 96-well plate and is initiated with the addition of substrate. […] The slope of product production is determined for each concentration of compound tested and plotted, using standard curve fitting algorithms for sigmoidal dose response curves. The values for a four parameter logistic curve fit of the data are determined.
In the case of `CON(C)C1=N[C@@H]2[C@@H](O)[C@H](O)[C@@H]([C@H](C)O)O[C@@H]2S1` (single isomer, unassigned) [Example 51], the Ki is reported as 5.1 nM.

Same assay, conditions: purified human O-GlcNAcase, 4-Methylumbelliferyl N-acetyl-β-D-glucosaminide substrate, pH 7.0, Cheng-Prusoff; read-out: Fluorescence-based hOGA Ki
`C[C@H](O)[C@H]1O[C@@H]2SC(NCC3CC3)=N[C@@H]2[C@@H](O)[C@@H]1O` (single isomer, unassigned) [Example 53] gave a Ki of 0.7 nM. `CCNC1=N[C@@H]2[C@@H](O)[C@H](O)[C@@H]([C@@H](O)CC)O[C@@H]2S1` [Example 105, (3aR,5R,6S,7R,7aR)-2-(ethylamino)-5-((S)-1-hydroxypropyl)-5,6,7,7a-tetrahydro-3aH-pyrano[3,2-d]thiazole-6,7-diol] showed a Ki of 3.4 nM. With `C=CC[C@H](O)[C@H]1O[C@@H]2SC(N3CCC3)=N[C@@H]2[C@@H](O)[C@@H]1O` (single isomer, unassigned) [Example 82] the Ki was 5.84 nM. In the case of `CCCC[C@H](O)[C@H]1O[C@@H]2SC(N(C)C)=N[C@@H]2[C@@H](O)[C@@H]1O` (single isomer, unassigned) [Example 71], the Ki is reported as 9.12 nM. For `CCC[C@H](O)[C@H]1O[C@@H]2SC(N(C)C)=N[C@@H]2[C@@H](O)[C@@H]1O` (single isomer, unassigned) [Example 69], the Ki was 9.36 nM. `C[C@H](O)[C@H]1O[C@@H]2SC(N3CCC3)=N[C@@H]2[C@@H](O)[C@@H]1O` (single isomer, unassigned) [Example 76] showed a Ki of 0.18 nM. `CN(C)C1=N[C@@H]2[C@@H](O)[C@H](O)[C@@H](C(C)(O)C(F)(F)F)O[C@@H]2S1` (mixture of isomers) [Example 203, (3aR,5S,6S,7R,7aR)-2-(dimethylamino)-5-((S)-1,1,1-trifluoro-2-hydroxypropan-2-yl)-5,6,7,7a-tetrahydro-3aH-pyrano[3,2-d]thiazole-6,7-diol] showed a Ki of 3.16 nM. Compound `C[C@H](O)[C@H]1O[C@@H]2SC(N3CCCC3)=N[C@@H]2[C@@H](O)[C@@H]1O` (single isomer, unassigned) [Example 91] has a Ki of 0.53 nM. In the case of `CCCNC1=N[C@H]2C(O[C@H]([C@@H](O)CC)[C@@H](O)[C@@H]2O)S1` (single isomer, unassigned) [Example 47], the Ki is reported as 6.4 nM. With `C=C[C@H](O)[C@H]1O[C@@H]2SC(NCCC)=N[C@@H]2[C@@H](O)[C@@H]1O` (single isomer, unassigned) [Example 42] the Ki was 1.03 nM. Compound `CN(C)C1=N[C@@H]2[C@@H](O)[C@H](O)[C@@H]([C@@H](O)C(F)(F)F)O[C@@H]2S1` [Example 11, (3aR,5S,6S,7R,7aR)-2-(dimethylamino)-5-((R)-2,2,2-trifluoro-1-hydroxyethyl)-5,6,7,7a-tetrahydro-3aH-pyrano[3,2-d]thiazole-6,7-diol] has a Ki of 0.3 nM. `CN(C)C1=N[C@@H]2[C@@H](O)[C@H](O)[C@@H](C(C)(C)O)O[C@@H]2S1` [Example 4, (3aR,5S,6S,7R,7aR)-2-(dimethylamino)-5-(2-hydroxypropan-2-yl)-5,6,7,7a-tetrahydro-3aH-pyrano[3,2-d]thiazole-6,7-diol] showed a Ki of 3.1 nM. For `CCN(C)C1=N[C@H]2C(O[C@H]([C@H](C)O)[C@@H](O)[C@@H]2O)S1` (single isomer, unassigned) [Example 57], the Ki was 0.33 nM. In the case of `CCCNC1=N[C@@H]2[C@@H](O)[C@H](O)[C@@H]([C@@H](O)C(F)(F)F)O[C@@H]2S1` [Example 97, (3aR,5S,6S,7R,7aR)-2-(propylamino)-5-((R)-2,2,2-trifluoro-1-hydroxyethyl)-5,6,7,7a-tetrahydro-3aH-pyrano[3,2-d]thiazole-6,7-diol], the Ki is reported as 0.17 nM. For `CC[C@H]1O[C@@H]2SC(NC)=N[C@@H]2[C@@H](O)[C@@H]1O` [Example 8, (3aR,5R,6S,7R,7aR)-5-Ethyl-2-(methylamino)-5,6,7,7a-tetrahydro-3aH-pyrano[3,2-d]thiazole-6,7-diol], the Ki was 0.68 nM. In the case of `CON(C)C1=N[C@@H]2[C@@H](O)[C@H](O)[C@@H]([C@@H](O)C(F)(F)F)O[C@@H]2S1` [Example 98, (3aR,5S,6S,7R,7aR)-2-(methoxy(methyl)amino)-5-((R)-2,2,2-trifluoro-1-hydroxyethyl)-5,6,7,7a-tetrahydro-3aH-pyrano[3,2-d]thiazole-6,7-diol], the Ki is reported as 1.43 nM. Work on `CNC1=N[C@@H]2[C@@H](O)[C@H](O)[C@@H]([C@@H](O)C(F)(F)F)O[C@@H]2S1` [Example 95, (3aR,5S,6S,7R,7aR)-2-(methylamino)-5-((R)-2,2,2-trifluoro-1-hydroxyethyl)-5,6,7,7a-tetrahydro-3aH-pyrano[3,2-d]thiazole-6,7-diol] yielded a Ki of 0.16 nM. In the case of `C=CC[C@H](O)[C@H]1O[C@@H]2SC(NC)=N[C@@H]2[C@@H](O)[C@@H]1O` (single isomer, unassigned) [Example 25], the Ki is reported as 0.7 nM. `C=CC(O)C1O[C@@H]2SC(N(C)CC)=N[C@@H]2[C@@H](O)[C@@H]1O` (single isomer, unassigned) [Example 61] gave a Ki of 2.46 nM. In the case of `C[C@H](O)[C@H]1O[C@@H]2SC(N(C)C)=N[C@@H]2[C@@H](O)[C@@H]1O` [Example 1, (3aR,5R,6S,7R,7aR)-2-(Dimethylamino)-5-((S)-1-hydroxyethyl)-5,6,7,7a-tetrahydro-3aH-pyrano[3,2-d]thiazole-6,7-diol], the Ki is reported as 0.17 nM. With `C[C@@H](O)[C@H]1O[C@@H]2SC(N(C)C)=N[C@@H]2[C@@H](O)[C@@H]1O` [Example 104, (3aR,5R,6S,7R,7aR)-2-(dimethylamino)-5-((R)-1-hydroxyethyl)-5,6,7,7a-tetrahydro-3aH-pyrano[3,2-d]thiazole-6,7-diol] the Ki was 3.63 nM. Compound `CNC1=N[C@@H]2[C@@H](O)[C@H](O)[C@@H]([C@@H](C)F)O[C@@H]2S1` (single isomer, unassigned) [Example 181] has a Ki of 0.8 nM. Work on `CNC1=N[C@@H]2[C@@H](O)[C@H](O)[C@@H](C(C)(C)O)O[C@@H]2S1` [Example 3, (3aR,5S,6S,7R,7aR)-5-(2-Hydroxypropan-2-yl)-2-(methylamino)-5,6,7,7a-tetrahydro-3aH-pyrano[3,2-d]thiazole-6,7-diol] yielded a Ki of 0.9 nM. `C=C[C@H](O)[C@H]1O[C@@H]2SC(N3CCC3)=N[C@@H]2[C@@H](O)[C@@H]1O` (single isomer, unassigned) [Example 80] showed a Ki of 0.5 nM. For `CNC1=N[C@@H]2[C@@H](O)[C@H](O)[C@@H](C(C)(O)C(F)(F)F)O[C@@H]2S1` (stereo partly drawn) [Example 159, (3aR,5S,6S,7R,7aR)-2-(methylamino)-5-(1,1,1-trifluoro-2-hydroxypropan-2-yl)-5,6,7,7a-tetrahydro-3aH-pyrano[3,2-d]thiazole-6,7-diol], the Ki was 1.25 nM. Work on `C=CC[C@H](O)[C@H]1O[C@@H]2SC(N(C)C)=N[C@@H]2[C@@H](O)[C@@H]1O` (single isomer, unassigned) [Example 67] yielded a Ki of 1.25 nM. `CC(C)(O)[C@H]1O[C@@H]2SC(N3CCC3)=N[C@@H]2[C@@H](O)[C@@H]1O` [Example 77, (3aR,5S,6S,7R,7aR)-2-(azetidin-1-yl)-5-(2-hydroxypropan-2-yl)-5,6,7,7a-tetrahydro-3aH-pyrano[3,2-d]thiazole-6,7-diol] showed a Ki of 16.3 nM. `C[C@H](O)[C@H]1O[C@@H]2SC(NCCF)=N[C@@H]2[C@@H](O)[C@@H]1O` [Example 141, (3aR,5R,6S,7R,7aR)-2-(2-Fluoroethylamino)-5-((S)-1-hydroxyethyl)-5,6,7,7a-tetrahydro-3aH-pyrano[3,2-d]thiazole-6,7-diol] gave a Ki of 0.82 nM. `C=C(C)[C@H](O)[C@H]1O[C@@H]2SC(N(C)C)=N[C@@H]2[C@@H](O)[C@@H]1O` (single isomer, unassigned) [Example 65] gave a Ki of 0.45 nM. Work on `CNC1=N[C@@H]2[C@@H](O)[C@H](O)[C@@H]([C@@H](O)C(F)F)O[C@@H]2S1` [Example 191, (3aR,5S,6S,7R,7aR)-5-((R)-2,2-difluoro-1-hydroxyethyl)-2-(methylamino)-5,6,7,7a-tetrahydro-3aH-pyrano[3,2-d]thiazole-6,7-diol] yielded a Ki of 0.14 nM. Compound `CCN(C)C1=N[C@@H]2[C@@H](O)[C@H](O)[C@@H]([C@@H](O)C(F)(F)F)O[C@@H]2S1` (single isomer, unassigned) [Example 211] has a Ki of 0.44 nM. Work on `CCCNC1=N[C@@H]2[C@@H](O)[C@H](O)[C@@H]([C@H](C)O)O[C@@H]2S1` [Example 2, (3aR,5R,6S,7R,7aR)-5-((S)-1-hydroxyethyl)-2-(propylamino)-5,6,7,7a-tetrahydro-3aH-pyrano[3,2-d]thiazole-6,7-diol] yielded a Ki of 0.05 nM. For `CNC1=N[C@@H]2[C@@H](O)[C@H](O)[C@@H]([C@H](C)O)O[C@@H]2S1` (single isomer, unassigned) [Example 13], the Ki was 0.4 nM. With `O[C@H]1[C@H](O)[C@@H]([C@H](O)C(F)(F)F)O[C@@H]2SC(NCCF)=N[C@H]12` [Example 215, (3aR,5S,6S,7R,7aR)-2-(2-fluoroethylamino)-5-((S)-2,2,2-trifluoro-1-hydroxyethyl)-5,6,7,7a-tetrahydro-3aH-pyrano[3,2-d]thiazole-6,7-diol] the Ki was 1.8 nM. `C=C[C@H](O)[C@H]1O[C@@H]2SC(N(C)C)=N[C@@H]2[C@@H](O)[C@@H]1O` (single isomer, unassigned) [Example 63] gave a Ki of 0.22 nM. Work on `CCNC1=N[C@@H]2[C@@H](O)[C@H](O)[C@@H]([C@H](C)O)O[C@@H]2S1` (single isomer, unassigned) [Example 27] yielded a Ki of 0.12 nM.
